The subject of one data set is Vibrio parahaemolyticus. Kind of data set: Antimicrobial activity against Vibrio parahaemolyticus QDIO-8 measured after 24 hrs by XTT assay. The format is functional. As to conditions: QDIO-8, 24 h.
For the next data set, the system named is Fusarium graminearum. Kind of data set: Antimicrobial activity against Fusarium graminearum QDAU-4 measured after 24 hrs by XTT assay. The format is functional. As to conditions: QDAU-4, 24 h.
The test system of another data set is Gaeumannomyces graminis. Nature of the data set: Antimicrobial activity against Gaeumannomyces graminis QDAU-3 measured after 24 hrs. The format is functional. As to conditions: QDAU-3, 24 h.
A further data set concerns Vibrio anguillarum. Nature of the data set: Antimicrobial activity against Vibrio anguillarum QDIO-6 measured after 24 hrs by XTT assay. The format is functional. As to conditions: QDIO-6, 24 h.
In a further data set the test system is Vibrio harveyi. Nature of the data set: Antimicrobial activity against Vibrio harveyi QDIO-7 measured after 24 hrs by XTT assay. The format is functional. To be noted: QDIO-7, 24 h.
Another data set concerns Aeromonas hydrophila. Kind of data set: Antimicrobial activity against Aeromonas hydrophila QDIO-1 measured after 24 hrs by XTT assay. The format is functional. As to conditions: QDIO-1, 24 h.
The subject of data set [1] is Colletotrichum gloeosporioides. Kind of data set: Antimicrobial activity against Colletotrichum gloeosporioides QDAU-2 by XTT assay. The format is functional.
In the next data set the test system is Alternaria brassicae. Kind of data set: Antimicrobial activity against Alternaria brassicae QDAU-1 measured after 24 hrs by XTT assay. The format is functional. To be noted: QDAU-1, 24 h.
The subject of the next data set is Escherichia coli. Kind of data set: Antimicrobial activity against Escherichia coli EMBLC-1 measured after 24 hrs by XTT assay. The format is functional. As to conditions: EMBLC-1, 24 h.
The subject of the next data set is Pseudomonas aeruginosa. Kind of data set: Antimicrobial activity against Pseudomonas aeruginosa QDIO-4 measured after 24 hrs by XTT assay. The format is functional. To be noted: QDIO-4, 24 h.
Data set [2] in a line: Toxicity in brine shrimp larvae assessed as lethality measured after 24 hrs by macroscopic analysis. As to conditions: artemia salina; read-out: LD50.
The test system of another data set is Edwardsiella tarda. Kind of data set: Antimicrobial activity against Edwardsiella tarda QDIO-2 measured after 24 hrs by XTT assay. The format is functional. To be noted: QDIO-2, 24 h.
Another data set concerns Micrococcus luteus. Kind of data set: Antimicrobial activity against Micrococcus luteus QDIO-3 measured after 24 hrs by XTT assay. The format is functional. To be noted: QDIO-3, 24 h.
The subject of another data set is Staphylococcus aureus. Kind of data set: Antimicrobial activity against Staphylococcus aureus EMBLC-2 measured after 24 hrs by XTT assay. The format is functional. To be noted: EMBLC-2, 24 h.

The structures appear in SMILES notation. Values after ≈ are worked out from the molar mass of the structure shown.

For `C=C[C@@]1(C)CCc2c(c(O)cc3c2CCCC3(C)C)C1`, the MIC was 4 µg/mL (≈ 14.8 µM) in the data set on Vibrio parahaemolyticus; above 32 µg/mL with Fusarium graminearum; 8 µg/mL (≈ 29.6 µM) against Gaeumannomyces graminis; above 32 µg/mL with Vibrio anguillarum; above 32 µg/mL with Vibrio harveyi; above 32 µg/mL in the data set with Aeromonas hydrophila. For the same compound, the MIC in data set [1] was above 32 µg/mL; in the data set with Alternaria brassicae, above 32 µg/mL; against Escherichia coli it was above 32 µg/mL; in the data set with Pseudomonas aeruginosa it was above 32 µg/mL; against Edwardsiella tarda, 16 µg/mL (≈ 59.2 µM); in the data set with Micrococcus luteus, above 32 µg/mL. Also, the MIC with Staphylococcus aureus is 8 µg/mL (≈ 29.6 µM). For the same compound, the LC50 at 24 h in [2] is above 10 µg/mL.

Turning to `O=C(N[C@H](CO)[C@H](O)c1ccc([N+](=O)[O-])cc1)C(Cl)Cl` [CHLORAMPHENICOL], the MIC against Vibrio parahaemolyticus is 1 µg/mL (≈ 3.09 µM); against Vibrio anguillarum, 0.5 µg/mL (≈ 1.55 µM); with Vibrio harveyi, 4 µg/mL (≈ 12.4 µM); against Aeromonas hydrophila, 4 µg/mL (≈ 12.4 µM); in the data set on Escherichia coli it was 4 µg/mL (≈ 12.4 µM); against Pseudomonas aeruginosa, 4 µg/mL (≈ 12.4 µM). The MIC in the data set with Edwardsiella tarda was 8 µg/mL (≈ 24.8 µM); against Micrococcus luteus, 8 µg/mL (≈ 24.8 µM); against Staphylococcus aureus, 0.5 µg/mL (≈ 1.55 µM).

On to `C=C[C@]1(C)C=C2C(=O)C=C3C(C)(C)CC[C@@H](O)[C@]3(O)[C@H]2CC1`, for which the MIC with Vibrio parahaemolyticus is 32 µg/mL (≈ 106 µM); against Fusarium graminearum it was above 32 µg/mL; against Gaeumannomyces graminis, above 32 µg/mL; in the data set with Vibrio anguillarum it was above 32 µg/mL; with Vibrio harveyi, above 32 µg/mL; in the data set with Aeromonas hydrophila it was above 32 µg/mL. For the same compound, the MIC in data set [1] is above 32 µg/mL; against Alternaria brassicae it was 32 µg/mL (≈ 106 µM); in the data set with Escherichia coli it was above 32 µg/mL; in the data set on Pseudomonas aeruginosa, above 32 µg/mL; in the data set on Edwardsiella tarda, above 32 µg/mL; against Micrococcus luteus, 16 µg/mL (≈ 52.9 µM). The compound also showed an MIC in the data set on Staphylococcus aureus above 32 µg/mL. Further, in data set [2], the LC50 at 24 h was above 10 µg/mL.

`C=C[C@]1(C)C=C2C(=O)C=C3C(C)(C)CCC[C@]3(O)[C@@]2(O)CC1`: the MIC in the data set with Vibrio parahaemolyticus was above 32 µg/mL; with Fusarium graminearum it was 2 µg/mL (≈ 6.61 µM); against Gaeumannomyces graminis, 32 µg/mL (≈ 106 µM); with Vibrio anguillarum, above 32 µg/mL; in the data set on Vibrio harveyi, above 32 µg/mL; with Aeromonas hydrophila, above 32 µg/mL. For the same compound, the MIC in data set [1] is above 32 µg/mL; against Alternaria brassicae, 8 µg/mL (≈ 26.5 µM); against Escherichia coli it was 32 µg/mL (≈ 106 µM); in the data set on Pseudomonas aeruginosa it was 32 µg/mL (≈ 106 µM); against Edwardsiella tarda, above 32 µg/mL; against Micrococcus luteus, 4 µg/mL (≈ 13.2 µM). Besides, in the data set on Staphylococcus aureus, the MIC was above 32 µg/mL. In data set [2], the LC50 at 24 h was above 10 µg/mL.

In the case of `C=C[C@@]1(C)CCc2c3c(cc(O)c2[C@H]1O)C(C)(C)[C@H](O)CC3`, the MIC with Vibrio parahaemolyticus is above 32 µg/mL; with Fusarium graminearum, above 32 µg/mL; in the data set with Gaeumannomyces graminis it was 32 µg/mL (≈ 106 µM); with Vibrio anguillarum, above 32 µg/mL; against Vibrio harveyi, 4 µg/mL (≈ 13.2 µM); against Aeromonas hydrophila it was above 32 µg/mL. Further, the MIC is 32 µg/mL (≈ 106 µM) in data set [1]; above 32 µg/mL with Alternaria brassicae; 16 µg/mL (≈ 52.9 µM) against Escherichia coli; above 32 µg/mL against Pseudomonas aeruginosa; above 32 µg/mL in the data set on Edwardsiella tarda; above 32 µg/mL with Micrococcus luteus. Further, the MIC against Staphylococcus aureus stood at 32 µg/mL (≈ 106 µM). Besides, the LC50 at 24 h in data set [2] is above 10 µg/mL.

As to `C=C[C@@]1(C)CCc2c3c(cc(O)c2[C@@H]1O)C(C)(C)[C@H](O)CC3`, the MIC is 32 µg/mL (≈ 106 µM) against Vibrio parahaemolyticus; 4 µg/mL (≈ 13.2 µM) in the data set on Fusarium graminearum; 32 µg/mL (≈ 106 µM) against Gaeumannomyces graminis; 32 µg/mL (≈ 106 µM) against Vibrio anguillarum; above 32 µg/mL in the data set with Vibrio harveyi; above 32 µg/mL against Aeromonas hydrophila. Also, the MIC in data set [1] was 32 µg/mL (≈ 106 µM); against Alternaria brassicae it was 32 µg/mL (≈ 106 µM); in the data set with Escherichia coli, 32 µg/mL (≈ 106 µM); in the data set with Pseudomonas aeruginosa, 4 µg/mL (≈ 13.2 µM); against Edwardsiella tarda, above 32 µg/mL; with Micrococcus luteus, 16 µg/mL (≈ 52.9 µM). In addition, in the data set on Staphylococcus aureus, the MIC was above 32 µg/mL. Moreover, the LC50 at 24 h in data set [2] is above 10 µg/mL.

As to `C=C[C@]1(C)C=C2C(=O)C=C3C(C)(C)[C@H](O)CC[C@]3(O)[C@H]2CC1`, the MIC against Vibrio parahaemolyticus was 32 µg/mL (≈ 106 µM); with Fusarium graminearum, above 32 µg/mL; in the data set on Gaeumannomyces graminis it was above 32 µg/mL; with Vibrio anguillarum it was 32 µg/mL (≈ 106 µM); with Vibrio harveyi it was 8 µg/mL (≈ 26.5 µM); in the data set on Aeromonas hydrophila, 16 µg/mL (≈ 52.9 µM). For the same compound, the MIC was above 32 µg/mL in data set [1]; above 32 µg/mL in the data set on Alternaria brassicae; above 32 µg/mL in the data set with Escherichia coli; above 32 µg/mL with Pseudomonas aeruginosa; 4 µg/mL (≈ 13.2 µM) in the data set on Edwardsiella tarda; above 32 µg/mL in the data set with Micrococcus luteus. This compound registered an MIC against Staphylococcus aureus of 32 µg/mL (≈ 106 µM). The LC50 at 24 h in [2] is above 10 µg/mL.

Consider `C[C@@H]1[C@H](O)[C@@H](C)/C=C/C=C/C=C/C=C/C=C/C=C/C=C/[C@H](O[C@@H]2O[C@H](C)[C@@H](O)[C@H](N)[C@@H]2O)C[C@@H]2O[C@](O)(C[C@@H](O)C[C@@H](O)[C@H](O)CC[C@@H](O)C[C@@H](O)CC(=O)O[C@H]1C)C[C@H](O)[C@H]2C(=O)O` [AMPHOTERICIN B], for which the MIC came out at 8 µg/mL (≈ 8.66 µM) against Fusarium graminearum, 64 µg/mL (≈ 69.3 µM) against Gaeumannomyces graminis, 32 µg/mL (≈ 34.6 µM) in [1] and 32 µg/mL (≈ 34.6 µM) in the data set on Alternaria brassicae.

The values are drawn from ChEMBL document CHEMBL3853292, “Aspewentins D-H, 20-Nor-isopimarane Derivatives from the Deep Sea Sediment-Derived Fungus Aspergillus wentii SD-310” (J Nat Prod, 2016).
